According to US6914045B2, “Glycopeptide antibiotics” (Wyeth Holdings Corporation, priority 2001, dated 2005):
≈ marks a conversion by molar mass, not a printed value. Read-outs that look alike come from different tables or passages of the source.

Columns and labels:
Enterococcus sp. = experiment: in vitro antibacterial evaluation, MIC by broth dilution; type: cell-based; conditions: broth dilution, 18 hours at 35° C.
Method in brief: (§1)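 Read-out: the lowest concentration at which the test strain fails to grow. Serial dilutions (64-0.06 μg/mL) in Muller-Hinton II […], 5×10^5 CFU/mL inoculum, NCCLS M7-A2 procedure.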

Escherichia coli = experiment: as above; type: cell-based; conditions: 18 hours at 35° C.
Method in brief: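 Broth dilution per NCCLS standard M7-A2 in Muller-Hinton II […], with an inoculum of 5×10^5 CFU/mL and antibiotic spanning 64-0.06 μg/mL. The MIC is the lowest concentration that inhibits growth of the organism.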

Staphylococcus sp. = experiment: as above; type: cell-based; conditions: broth dilution, 18 hours at 35° C.
Method in brief: as §1

Streptococcus sp. = experiment: as above; type: cell-based; conditions: broth dilution, 18 hours at 35° C.
Method in brief: as §1

[1] = test system: Staphylococcus aureus-SMITH (GC 4543); experiment: acute lethal infection in mice; type: in vivo; conditions: Staphylococcus, read-out: median effective dose (ED50), Staphylococcus aureus-SMITH (GC 4543)
Method in brief: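 Female CD-1 mice (20±2 g) got an intraperitoneal bacterial challenge lethal to untreated controls within 24–48 hr. Compound was dosed intravenously 30 min after infection, five mice per dose. ED50 was calculated from 7-day survival pooled across 3 tests.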

[2] = anatomic pathology (histopathology of heart and kidney) in mice; type: in vivo; conditions: CD-1 mice, 20 mg/kg intravenously daily for 9 days, necropsy day 10, microscopic histopathology
Procedure: Samples of tissues from necropsied mice were formalin-fixed, paraffin-embedded, sectioned, stained with hematoxylin and eosin, and examined microscopically. Histopathologic findings were recorded. These findings were subjectively graded on a scale corresponding to slight, mild, moderate, marked and severe as compared to untreated controls.

[3] = test system: Gram-positive bacteria comprised of Staphylococcus sp., Streptococcus sp. and Enterococcus sp.; experiment: in vitro antibacterial evaluation, MIC by broth dilution (strain not given); type: cell-based
Procedure: Methods for in vitro Antibacterial Evaluation (Table 1)
The minimum inhibitory concentration (MIC), the lowest concentration of the antibiotic which inhibits growth of the test organism, is determined by the broth dilution method using Muller-Hinton II […] (Baltimore Biological Laboratories) following the recommendations of the National Committee for Clinical Laboratory Standards [Methods for dilution antimicrobial susceptibility tests for bacteria that grow aerobically, approved standard M7-A2, National Committee for Clinical Laboratory Standards, Villanova, Pa.].
An inoculum level of 5×10^5 CFU/mL, and a range of antibiotic concentrations (64-0.06 μg/mL) is used. […] The test organisms include a spectrum of Gram-positive bacteria comprised of Staphylococcus sp., Streptococcus sp. and Enterococcus sp. These organisms include recent clinical isolates that are resistant to methicillin, penicillin and/or vancomycin.

Q: With `N=C1NCC(C(O)C2NC(=O)[C@H](C(O)C3CNC(=N)N3)NC(=O)C(Cc3ccc(O)cc3)NC(=O)[C@H](Cc3ccccc3)NC(=O)CNC(=O)[C@H](CO)NC2=O)N1` (stereo in doubt) [Example 280a, Cyclo[glycylphenylalanyltyrosyl-3-(2-iminoimidazolidin-4-yl)seryl-3-(2-iminoimidazolidin-4-yl)serylseryl]] as the compound, how does the MIC (Enterococcus sp.; Enterococcus avium (GC 4558), read-out: MIC, Enterococcus avium (GC 4558)) read?
A: > 128 µg/mL

Q: And the MIC (Enterococcus sp.; Enterococcus faecalis (ATCC 29212), read-out: MIC, Enterococcus faecalis (ATCC 29212))?
A: > 128 µg/mL

Q: And the MIC (Enterococcus sp.; Enterococcus faecalis (GC 4553), read-out: MIC, Enterococcus faecalis (GC 4553))?
A: > 128 µg/mL

Q: And the MIC (Enterococcus sp.; Enterococcus faecalis (GC 4554), read-out: MIC, Enterococcus faecalis (GC 4554))?
A: > 128 µg/mL

Q: What about the MIC (Enterococcus sp.; Enterococcus faecalis (GC 6189), read-out: MIC, Enterococcus faecalis (GC 6189)) of the same compound?
A: > 128 µg/mL

Q: And the MIC (Enterococcus sp.; Enterococcus faecium (GC 2243), read-out: MIC, Enterococcus faecium (GC 2243))?
A: > 128 µg/mL

Q: And the MIC (Enterococcus sp.; Enterococcus faecium (GC 4556), read-out: MIC, Enterococcus faecium (GC 4556))?
A: > 128 µg/mL

Q: And the MIC (Enterococcus sp.; Enterococcus faecium (GC 4557), read-out: MIC, Enterococcus faecium (GC 4557))?
A: > 128 µg/mL

Q: And the MIC (Enterococcus sp.; strain ATCC 29212, read-out: MIC Enterococcus faecalis (ATCC 29212))?
A: > 128 µg/mL

Q: And the MIC (Enterococcus sp.; strain GC 2242, read-out: MIC Enterococcus faecalis (GC 2242))?
A: > 128 µg/mL

Q: And the MIC (Enterococcus sp.; strain GC 2243, read-out: MIC Enterococcus faecium (GC 2243))?
A: > 128 µg/mL

Q: What about the MIC (Enterococcus sp.; strain GC 2691, read-out: MIC Enterococcus faecalis (GC 2691)) of the same compound?
A: > 128 µg/mL

Q: What about the MIC (Enterococcus sp.; strain GC 3059, read-out: MIC Enterococcus faecalis (GC 3059)) of the same compound?
A: > 128 µg/mL

Q: What about the MIC (Enterococcus sp.; strain GC 4552, read-out: MIC Enterococcus faecalis (GC 4552)) of the same compound?
A: > 128 µg/mL

Q: What about the MIC (Enterococcus sp.; strain GC 4553, read-out: MIC Enterococcus faecalis (GC 4553)) of the same compound?
A: > 128 µg/mL

Q: And the MIC (Enterococcus sp.; strain GC 4554, read-out: MIC Enterococcus faecalis (GC 4554))?
A: > 128 µg/mL

Q: And the MIC (Enterococcus sp.; strain GC 4556, read-out: MIC Enterococcus faecium (GC 4556))?
A: > 128 µg/mL

Q: And the MIC (Enterococcus sp.; strain GC 4557, read-out: MIC Enterococcus faecium (GC 4557))?
A: > 128 µg/mL

Q: What about the MIC (Enterococcus sp.; strain GC 4558, read-out: MIC Enterococcus avium (GC 4558)) of the same compound?
A: > 128 µg/mL

Q: And the MIC (Enterococcus sp.; strain GC 6189, read-out: MIC Enterococcus faecalis (GC 6189))?
A: > 128 µg/mL

Q: What about the MIC (Escherichia coli; ATCC25922, Escherichia coli (ATCC 25922), read-out: MIC, Escherichia coli (ATCC 25922)) of the same compound?
A: 128 µg/mL (≈ 161 µM)

Q: And the MIC (Escherichia coli; Escherichia coli (GC 4559), read-out: MIC, Escherichia coli (GC 4559))?
A: 64 µg/mL (≈ 80.5 µM)

Q: And the MIC (Escherichia coli; Escherichia coli (GC 4560), read-out: MIC, Escherichia coli (GC 4560))?
A: 64 µg/mL (≈ 80.5 µM)

Q: And the MIC (Staphylococcus sp.; Staphylococcus, read-out: MIC Coagulase Negative Staphylococcus (GC 4547))?
A: 128 µg/mL (≈ 161 µM)

Q: What about the MIC (Staphylococcus sp.; Staphylococcus, read-out: MIC Coagulase Negative Staphylococcus (GC 4548)) of the same compound?
A: > 128 µg/mL

Q: And the MIC (Staphylococcus sp.; Staphylococcus, read-out: MIC Coagulase Negative Staphylococcus (GC 4549))?
A: 128 µg/mL (≈ 161 µM)

Q: What about the MIC (Staphylococcus sp.; Staphylococcus, read-out: MIC Coagulase Negative Staphylococcus (GC 4551)) of the same compound?
A: > 128 µg/mL

Q: What about the MIC (Staphylococcus sp.; Staphylococcus, read-out: MIC Coagulase Negative Staphylococcus (GC 6257)) of the same compound?
A: 128 µg/mL (≈ 161 µM)

Q: And the MIC (Staphylococcus sp.; Staphylococcus, read-out: MIC Staphylococcus aureus-SMITH (GC 4543))?
A: > 128 µg/mL

Q: What about the MIC (Staphylococcus sp.; read-out: MIC Staphylococcus aureus (ATCC 29213)) of the same compound?
A: > 128 µg/mL

Q: What about the MIC (Staphylococcus sp.; read-out: MIC Staphylococcus aureus (GC 1131)) of the same compound?
A: > 128 µg/mL

Q: What about the MIC (Staphylococcus sp.; read-out: MIC Staphylococcus aureus (GC 3051)) of the same compound?
A: > 128 µg/mL

Q: What about the MIC (Staphylococcus sp.; read-out: MIC Staphylococcus aureus (GC 3053)) of the same compound?
A: > 128 µg/mL

Q: And the MIC (Staphylococcus sp.; read-out: MIC Staphylococcus aureus (GC 4541))?
A: > 128 µg/mL

Q: What about the MIC (Staphylococcus sp.; read-out: MIC Staphylococcus aureus (GC 4542)) of the same compound?
A: > 128 µg/mL

Q: And the MIC (Staphylococcus sp.; read-out: MIC Staphylococcus aureus (GC 4544))?
A: > 128 µg/mL

Q: And the MIC (Staphylococcus sp.; read-out: MIC Staphylococcus aureus (GC 4545))?
A: > 128 µg/mL

Q: And the MIC (Staphylococcus sp.; read-out: MIC Staphylococcus haemolyticus (GC 4546))?
A: 128 µg/mL (≈ 161 µM)

Q: And the “MIC Staphylococcus aureus (ATCC 29213)” value (Staphylococcus sp.; strain ATCC 29213)?
A: >128 µg/mL

Q: And the “MIC Staphylococcus aureus (GC 1131)” value (Staphylococcus sp.; strain GC 1131)?
A: >128 µg/mL

Q: What about the “MIC Staphylococcus aureus (GC 3051)” value (Staphylococcus sp.; strain GC 3051) of the same compound?
A: >128 µg/mL

Q: And the “MIC Staphylococcus aureus (GC 3053)” value (Staphylococcus sp.; strain GC 3053)?
A: >128 µg/mL

Q: And the “MIC Staphylococcus aureus (GC 4541)” value (Staphylococcus sp.; strain GC 4541)?
A: >128 µg/mL

Q: And the “MIC Staphylococcus aureus (GC 4542)” value (Staphylococcus sp.; strain GC 4542)?
A: >128 µg/mL

Q: And the “MIC Staphylococcus aureus (GC 4544)” value (Staphylococcus sp.; strain GC 4544)?
A: >128 µg/mL

Q: And the “MIC Staphylococcus aureus (GC 4545)” value (Staphylococcus sp.; strain GC 4545)?
A: >128 µg/mL

Q: And the “MIC Staphylococcus haemolyticus (GC 4546)” value (Staphylococcus sp.; strain GC 4546)?
A: 128 µg/mL (≈ 161 µM)

Q: What about the “MIC Coagulase Negative Staphylococcus (GC 4547)” value (Staphylococcus sp.; strain GC 4547) of the same compound?
A: 128 µg/mL (≈ 161 µM)

Q: What about the “MIC Coagulase Negative Staphylococcus (GC 4548)” value (Staphylococcus sp.; strain GC 4548) of the same compound?
A: >128 µg/mL

Q: What about the “MIC Coagulase Negative Staphylococcus (GC 4549)” value (Staphylococcus sp.; strain GC 4549) of the same compound?
A: 128 µg/mL (≈ 161 µM)

Q: What about the “MIC Coagulase Negative Staphylococcus (GC 4551)” value (Staphylococcus sp.; strain GC 4551) of the same compound?
A: >128 µg/mL

Q: And the “MIC Coagulase Negative Staphylococcus (GC 6257)” value (Staphylococcus sp.; strain GC 6257)?
A: 128 µg/mL (≈ 161 µM)

Q: What about the “MIC Staphylococcus aureus-SMITH (GC 4543)” value (Staphylococcus sp.; strain SMITH GC 4543) of the same compound?
A: >128 µg/mL

Q: And the MIC (Streptococcus sp.; strain ATCC 6301, read-out: MIC Streptococcus pneumoniae (ATCC 6301))?
A: > 128 µg/mL

Q: And the MIC (Streptococcus sp.; strain GC 1894, read-out: MIC Streptococcus pneumoniae (GC 1894))?
A: 128 µg/mL (≈ 161 µM)

Q: What about the MIC (Streptococcus sp.; strain GC 4563, read-out: MIC Streptococcus pyogenes (GC 4563)) of the same compound?
A: > 128 µg/mL

Q: What about the MIC (Streptococcus sp.; strain GC 4564, read-out: MIC Streptococcus agalactiae (GC 4564)) of the same compound?
A: > 128 µg/mL

Q: What about the MIC (Streptococcus sp.; strain GC 4565, read-out: MIC Streptococcus pneumoniae (GC 4565)) of the same compound?
A: > 128 µg/mL

Q: And the ED50 [1]?
A: > 8 mg/kg

Q: What about the “Anatomical Pathology (Day 10), Heart” value [2] of the same compound?
A: 0

Q: And the “Anatomical Pathology (Day 10), Kidney” value [2]?
A: ++

Q: And the MIC ([3]; Table 2 section r2574-r2600, column 1, 18 hours at 35° C., read-out: MIC, strain of column 1)?
A: > 128 µg/mL

Q: What about the MIC ([3]; Table 2 section r2574-r2600, column 2, 18 hours at 35° C., read-out: MIC, strain of column 2) of the same compound?
A: 128 µg/mL (≈ 161 µM)

Q: And the MIC ([3]; Table 2 section r2574-r2600, column 3, 18 hours at 35° C., read-out: MIC, strain not given)?
A: > 128 µg/mL

Q: What about the MIC ([3]; Table 2 section r2574-r2600, column 5, 18 hours at 35° C., read-out: MIC, strain of column 5) of the same compound?
A: > 128 µg/mL

Q: And the MIC ([3]; Table 2 section r2574-r2600, column 7, 18 hours at 35° C., read-out: MIC, strain not given)?
A: > 128 µg/mL

Q: What about the MIC ([3]; Table 2 section r2574-r2600, column 9, 18 hours at 35° C., read-out: MIC, strain of column 9) of the same compound?
A: > 128 µg/mL

Q: And the MIC ([3]; Table 2 section r2574-r2600, column 10, 18 hours at 35° C., read-out: MIC, strain of column 10)?
A: > 128 µg/mL
